# Source: ChEMBL document CHEMBL1201862, “PubChem BioAssay data set” (2004)
#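 96-well plates; 48 h exposure; 5 concentrations. Endpoints by linear interpolation between flanking doses. Not reached: highest tested concentration assigned. GI50 is the concentration that inhibits growth by half.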 Active and inactive are the calls of the source. Cut-off read from the data, not from the text of the source: active = GI50 up to about 1.1 µM and inactive = higher.
# Assays:
# Experiment in all cases: DTP human tumour cell line panel, 48 h
# SW-620 = system: SW-620
# SR = system: SR
# SNB-78 = system: SNB-78
# UO-31 = system: UO-31
# SNB-19 = system: SNB-19
# Malme-3M = system: Malme-3M
# NCI-H460 = system: NCI-H460
# HCT-116 = system: HCT-116
# SK-MEL-2 = system: SK-MEL-2
# EKVX = system: EKVX
# SNB-75 = system: SNB-75
# DLD-1 = system: DLD-1
# HT-29 = system: HT-29
# 786-0 = system: 786-0
# HCT-15 = system: HCT-15
# OVCAR-4 = system: OVCAR-4
# OVCAR-8 = system: OVCAR-8
# LXFL 529 = system: LXFL 529
# UACC-62 = system: UACC-62
# COLO 205 = system: COLO 205
# LOX IMVI = system: LOX IMVI
# DMS-114 = system: DMS-114
# M19-MEL = system: M19-MEL
# A549 = system: A549
# K562 = system: K562
# TK-10 = system: TK-10
# KM12 = system: KM12
# M14 = system: M14
# SF-539 = system: SF-539
# NCI-H522 = system: NCI-H522
# OVCAR-5 = system: OVCAR-5
# KM-20L2 = system: KM-20L2
# HOP-62 = system: HOP-62
# HOP-92 = system: HOP-92
# CAKI-1 = system: CAKI-1
# SK-MEL-28 = system: SK-MEL-28
# RXF 631 = system: RXF 631
# NCI-H23 = system: NCI-H23
# MOLT-4 = system: MOLT-4
# IGROV-1 = system: IGROV-1
# SF-295 = system: SF-295
# RPMI-8226 = system: RPMI-8226
# UACC-257 = system: UACC-257
# U-251 = system: U-251
# XF498 = system: XF498
# HL-60 = system: HL-60
# SK-OV-3 = system: SK-OV-3
# OVCAR-3 = system: OVCAR-3
# SF-268 = system: SF-268
# CCRF-CEM = system: CCRF-CEM
# NCI-H226 = system: NCI-H226
# RXF 393 = system: RXF 393
# SN12C = system: SN12C
# ACHN = system: ACHN
# DMS-273 = system: DMS-273
# A498 = system: A498
# SK-MEL-5 = system: SK-MEL-5
# HCC 2998 = system: HCC 2998
# T47D = system: T47D
# DU-145 = system: DU-145
# MCF7 = system: MCF7
# NCI/ADR-RES = system: NCI/ADR-RES
# MDA-N = system: MDA-N
# MDA-MB-435 = system: MDA-MB-435
# BT-549 = system: BT-549
# PC-3 = system: PC-3
# Hs-578T = system: Hs-578T
# MDA-MB-231 = system: MDA-MB-231
# HOP-18 = system: HOP-18
compound,measurement,setting,value
O=C1c2ccccc2C(=O)C1(O)c1c[nH]c2ccccc12,GI50,SW-620,> 100 µM (inactive)
same,GI50,SR,> 100 µM (inactive)
same,GI50,SNB-78,> 100 µM (inactive)
same,GI50,UO-31,> 100 µM (inactive)
same,GI50,SNB-19,> 100 µM (inactive)
same,GI50,Malme-3M,> 100 µM (inactive)
same,GI50,NCI-H460,> 100 µM (inactive)
same,GI50,HCT-116,> 100 µM (inactive)
same,GI50,SK-MEL-2,> 100 µM (inactive)
same,GI50,EKVX,> 100 µM (inactive)
same,GI50,SNB-75,> 100 µM (inactive)
same,GI50,DLD-1,> 100 µM (inactive)
same,GI50,HT-29,> 100 µM (inactive)
same,GI50,786-0,> 100 µM (inactive)
same,GI50,HCT-15,> 100000 nM
same,GI50,OVCAR-4,> 100 µM (inactive)
same,GI50,OVCAR-8,> 100 µM (inactive)
same,GI50,LXFL 529,> 100 µM (inactive)
same,GI50,UACC-62,> 100 µM (inactive)
same,GI50,COLO 205,> 100 µM (inactive)
same,GI50,LOX IMVI,> 100 µM (inactive)
same,GI50,DMS-114,> 100 µM (inactive)
same,GI50,M19-MEL,> 100 µM (inactive)
same,GI50,A549,> 100 µM (inactive)
same,GI50,K562,> 100 µM (inactive)
same,GI50,TK-10,> 100 µM (inactive)
same,GI50,KM12,> 100 µM (inactive)
same,GI50,M14,> 100 µM (inactive)
same,GI50,SF-539,> 100 µM (inactive)
same,GI50,NCI-H522,> 100 µM (inactive)
same,GI50,OVCAR-5,> 100 µM (inactive)
same,GI50,KM-20L2,> 100 µM (inactive)
same,GI50,HOP-62,> 100 µM (inactive)
same,GI50,HOP-92,> 100 µM (inactive)
same,GI50,CAKI-1,> 100 µM (inactive)
same,GI50,SK-MEL-28,> 100 µM (inactive)
same,GI50,RXF 631,> 100 µM (inactive)
same,GI50,NCI-H23,> 100 µM (inactive)
same,GI50,MOLT-4,> 100 µM (inactive)
same,GI50,IGROV-1,> 100 µM (inactive)
same,GI50,SF-295,> 100 µM (inactive)
same,GI50,RPMI-8226,> 100 µM (inactive)
same,GI50,UACC-257,> 100 µM (inactive)
same,GI50,U-251,> 100 µM (inactive)
same,GI50,XF498,> 100 µM (inactive)
same,GI50,HL-60,> 100 µM (inactive)
same,GI50,SK-OV-3,> 100 µM (inactive)
same,GI50,OVCAR-3,> 100 µM (inactive)
same,GI50,SF-268,> 100 µM (inactive)
same,GI50,CCRF-CEM,> 100 µM (inactive)
c1ccc([P+](c2ccccc2)(c2ccccc2)C2Sc3ccccc3S2)cc1,GI50,NCI-H226,12.5 µM (inactive)
same,GI50,SW-620,> 100 µM (inactive)
same,GI50,SNB-78,18.7 µM (inactive)
same,GI50,UO-31,16.1 µM (inactive)
same,GI50,SNB-19,27.7 µM (inactive)
same,GI50,Malme-3M,13.9 µM (inactive)
same,GI50,NCI-H460,23.3 µM (inactive)
same,GI50,HCT-116,12.8 µM (inactive)
same,GI50,EKVX,22.9 µM (inactive)
same,GI50,RXF 393,14.9 µM (inactive)
same,GI50,SN12C,16.6 µM (inactive)
same,GI50,SNB-75,17.8 µM (inactive)
same,GI50,DLD-1,12.4 µM (inactive)
same,GI50,HT-29,23 µM (inactive)
same,GI50,786-0,17.3 µM (inactive)
same,GI50,OVCAR-4,18.9 µM (inactive)
same,GI50,OVCAR-8,15.1 µM (inactive)
same,GI50,LXFL 529,12.6 µM (inactive)
same,GI50,UACC-62,13.8 µM (inactive)
same,GI50,COLO 205,16.7 µM (inactive)
same,GI50,LOX IMVI,11.4 µM (inactive)
same,GI50,ACHN,17.3 µM (inactive)
same,GI50,DMS-273,18.1 µM (inactive)
same,GI50,DMS-114,12.7 µM (inactive)
same,GI50,M19-MEL,15.1 µM (inactive)
same,GI50,A549,15 µM (inactive)
same,GI50,K562,16.9 µM (inactive)
same,GI50,TK-10,21 µM (inactive)
same,GI50,KM12,21.9 µM (inactive)
same,GI50,M14,15.3 µM (inactive)
same,GI50,SF-539,18.3 µM (inactive)
same,GI50,NCI-H522,14.9 µM (inactive)
same,GI50,OVCAR-5,19.7 µM (inactive)
same,GI50,KM-20L2,23.4 µM (inactive)
same,GI50,HOP-62,23.1 µM (inactive)
same,GI50,HOP-92,> 100 µM (inactive)
same,GI50,CAKI-1,14.6 µM (inactive)
same,GI50,SK-MEL-28,13.6 µM (inactive)
same,GI50,A498,28.1 µM (inactive)
same,GI50,SK-MEL-5,17.7 µM (inactive)
same,GI50,RXF 631,16 µM (inactive)
same,GI50,NCI-H23,10.5 µM (inactive)
same,GI50,IGROV-1,> 100 µM (inactive)
same,GI50,SF-295,17.4 µM (inactive)
same,GI50,HCC 2998,15.7 µM (inactive)
same,GI50,RPMI-8226,16.7 µM (inactive)
same,GI50,UACC-257,16.4 µM (inactive)
same,GI50,U-251,16 µM (inactive)
same,GI50,XF498,17.3 µM (inactive)
same,GI50,HL-60,5.96 µM (inactive)
same,GI50,SK-OV-3,28.8 µM (inactive)
same,GI50,OVCAR-3,14.5 µM (inactive)
same,GI50,SF-268,17.2 µM (inactive)
same,GI50,CCRF-CEM,13.8 µM (inactive)
COc1ccc2c(NCCCCCCNc3c4ccccc4nc4cc(OC)ccc34)c3ccccc3nc2c1,GI50,T47D,421 nM (active)
same,GI50,NCI-H226,0.212 µM (active)
same,GI50,SW-620,0.0448 µM (active)
same,GI50,SR,0.0185 µM (active)
same,GI50,SNB-78,0.12 µM (active)
same,GI50,UO-31,12.9 µM (inactive)
same,GI50,SNB-19,0.218 µM (active)
same,GI50,Malme-3M,0.427 µM (active)
same,GI50,NCI-H460,0.0272 µM (active)
same,GI50,HCT-116,0.0451 µM (active)
same,GI50,SK-MEL-2,0.364 µM (active)
same,GI50,EKVX,0.579 µM (active)
same,GI50,RXF 393,0.0834 µM (active)
same,GI50,DU-145,204 nM (active)
same,GI50,SN12C,0.0676 µM (active)
same,GI50,SNB-75,0.175 µM (active)
same,GI50,MCF7,47.5 nM (active)
same,GI50,DLD-1,0.242 µM (active)
same,GI50,HT-29,0.029 µM (active)
same,GI50,786-0,0.0753 µM (active)
same,GI50,HCT-15,1290 nM
same,GI50,OVCAR-4,0.103 µM (active)
same,GI50,NCI/ADR-RES,2.72 µM (inactive)
same,GI50,MDA-N,142 nM (active)
same,GI50,MDA-MB-435,254 nM (active)
same,GI50,OVCAR-8,0.0853 µM (active)
same,GI50,LXFL 529,0.04 µM (active)
same,GI50,UACC-62,0.263 µM (active)
same,GI50,COLO 205,0.0753 µM (active)
same,GI50,LOX IMVI,0.0653 µM (active)
same,GI50,ACHN,0.163 µM (active)
same,GI50,DMS-273,0.0313 µM (active)
same,GI50,DMS-114,0.1 µM (active)
same,GI50,M19-MEL,0.0484 µM (active)
same,GI50,A549,0.0716 µM (active)
same,GI50,BT-549,1.3 µM (inactive)
same,GI50,K562,0.0334 µM (active)
same,GI50,PC-3,88.5 nM (active)
same,GI50,TK-10,0.385 µM (active)
same,GI50,KM12,0.0776 µM (active)
same,GI50,M14,0.48 µM (active)
same,GI50,SF-539,0.0929 µM (active)
same,GI50,NCI-H522,0.0624 µM (active)
same,GI50,OVCAR-5,0.186 µM (active)
same,GI50,KM-20L2,0.065 µM (active)
same,GI50,HOP-62,0.137 µM (active)
same,GI50,Hs-578T,219 nM (active)
same,GI50,HOP-92,0.1 µM (active)
same,GI50,CAKI-1,0.367 µM (active)
same,GI50,SK-MEL-28,0.342 µM (active)
same,GI50,A498,0.516 µM (active)
same,GI50,SK-MEL-5,1.01 µM (active)
same,GI50,RXF 631,0.126 µM (active)
same,GI50,NCI-H23,0.104 µM (active)
same,GI50,MOLT-4,0.0146 µM (active)
same,GI50,MDA-MB-231,67 nM (active)
same,GI50,IGROV-1,0.075 µM (active)
same,GI50,SF-295,0.286 µM (active)
same,GI50,HCC 2998,0.135 µM (active)
same,GI50,RPMI-8226,0.0573 µM (active)
same,GI50,UACC-257,0.731 µM (active)
same,GI50,U-251,0.0728 µM (active)
same,GI50,HL-60,0.0923 µM (active)
same,GI50,SK-OV-3,0.245 µM (active)
same,GI50,OVCAR-3,0.162 µM (active)
same,GI50,SF-268,0.213 µM (active)
same,GI50,HOP-18,2.15 µM (inactive)
same,GI50,CCRF-CEM,0.0447 µM (active)
